Assay: xn = mol fraction of the nth substance listed
Settings: 101 kPa

CCCCCCCCCCOS(=O)(=O)[O-].CC[n+]1ccn(C)c1 + O
electrical conductivity [S/m]
Settings	303.15 K	313.15 K	323.15 K	333.15 K	343.15 K	353.15 K	363.15 K	372.95 K
x1 = 0.075	2.53	3.16	3.83	4.55	5.29	6.06	–	–
x1 = 0.317	–	–	–	–	1.34	1.63	1.96	2.23

— a compilation of properties of binary mixtures (doi:10.1039/c7qm00510e)
